Assay results taken from ChEMBL document CHEMBL1201862, “PubChem BioAssay data set” (2004).
Calls of active or inactive are those of the source.

Experiments:
Cytochrome P450 2C9 = Cytochrome P450 2C9 (Homo sapiens, UniProt P11712)
Cytochrome P450 3A4 [1] = molecular target: T1, Cytochrome P450 3A4 (Homo sapiens, UniProt P08684)
Cytochrome P450 1A2 = molecular target: T2, Cytochrome P450 1A2 (Homo sapiens, UniProt P05177);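 further: PubChem cytochrome P450 panel assay, CYP1A2 panel member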
T2 sequence (P05177 whole entry): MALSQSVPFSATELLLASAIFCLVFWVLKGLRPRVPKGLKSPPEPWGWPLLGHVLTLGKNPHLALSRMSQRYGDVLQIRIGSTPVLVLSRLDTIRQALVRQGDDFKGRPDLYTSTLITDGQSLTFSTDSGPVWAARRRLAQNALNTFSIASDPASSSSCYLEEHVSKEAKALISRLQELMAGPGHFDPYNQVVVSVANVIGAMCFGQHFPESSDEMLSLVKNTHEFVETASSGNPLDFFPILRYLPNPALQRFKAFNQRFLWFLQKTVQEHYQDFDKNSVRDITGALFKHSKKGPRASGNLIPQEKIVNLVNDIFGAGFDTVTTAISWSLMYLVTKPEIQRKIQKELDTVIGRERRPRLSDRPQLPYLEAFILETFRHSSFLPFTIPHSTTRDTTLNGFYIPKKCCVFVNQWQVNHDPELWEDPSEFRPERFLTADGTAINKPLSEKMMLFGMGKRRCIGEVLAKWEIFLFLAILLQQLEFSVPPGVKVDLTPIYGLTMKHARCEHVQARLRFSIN

Cytochrome P450 3A4 [2] = molecular target: T1, Cytochrome P450 3A4; settings: Potency
[3] = THP-1 cell cytotoxicity, dose response, cytotoxicity control for Vif-APOBEC3G degradation inhibitor project, THP-1 cells (AID 1117359); type: functional; settings: Human immunodeficiency virus 1, THP-1
[4] = MC4R antagonists, dose response, counter-screen for LGR2 antagonist project, cell-based, plate reader, cherry pick (AID 743444); type: functional;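 further: transfected HEK 293 cells stimulated with alpha-MSH peptide; potency of inhibitors of the alpha-MSH evoked signal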
[5] = LGR2 antagonists, dose response, cell-based, HEK293, CRE-luciferase reporter, cherry pick, set 2 (AID 743343); type: functional;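 further: transfected cells were stimulated with diluted bursicon conditioned medium after compound addition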
[6] = cytotoxicity in OVCAR8 ovarian cancer cells, dose response, PAX8 project, cell-based, plate reader, dry powder samples (AID 743197); type: functional; settings: OVCAR-8
[7] = P. falciparum 3D7-ScDHODH growth inhibitors, dose response, SYBR Green, dry powder samples (AID 1159570); type: functional, cell-based;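 further: parasite growth measured after 72 hours of compound exposure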
Paired box protein Pax-8 = Paired box protein Pax-8 (Homo sapiens, UniProt Q06710); experiment: inhibitors of PAX8-driven TPO luciferase reporter, dose response, RMG-I cells, cherry-pick (AID 687027); type: functional, cell-based;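 further: luciferase reporter driven by Pax8 target thyroperoxidase promoter measured by SteadyGlo luminescence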
[8] = HepG2 cell cytotoxicity, dose response, cytotoxicity control, plate reader, dry powder samples (AID 1159569); type: functional, cell-based;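 further: inhibitor potency with signal falling toward the positive control level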
[9] = P. falciparum ATP4 D1247Y mutant growth inhibitors, dose response, NITD609-resistant line, SYBR Green, dry powder (AID 1159571); type: functional, cell-based;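 further: parasites synchronized at ring stage by sorbitol before testing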
[10] = P. falciparum Dd2 growth inhibitors, dose response, SYBR Green, cherry-picked samples (AID 1159567); type: functional, cell-based
[11] = P. falciparum Dd2 growth inhibitors, dose response, SYBR Green, dry powder samples (AID 1159566); type: functional, cell-based;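 further: potency for growth inhibition with lower SYBR green DNA signal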
[12] = off-target signal loss in HeLa-CEM21 co-culture – HeLa F-luc CTL cells, cherry-picked, counter-screen for HIV-1 Env fusion inhibitor project, dose response (AID 652040); type: functional, cell-based;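 further: potency for signal decrease marking cytotoxic or nonspecific inhibition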
[13] = inhibitors of HIV Env-driven cell fusion, dose response, cherry-pick (AID 652057); type: functional, cell-based
[14] = ZM109 Env clade C HIV-1 fusion inhibitors, dose response, HeLa effector, CEM target cells, luciferase, cherry-pick (AID 652058); type: functional, cell-based
[15] = inhibitors of clade B AD8 Env fusion, dose response, cell-based, cherry-pick (AID 652062); type: functional;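 further: luciferase signal from cell-cell fusion driven by HIV-1 clade B AD8 Env; potency is for inhibitors of fusion seen as a drop in luminescence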
Fatty acid synthase [16] = molecular target: T3, Fatty acid synthase (Homo sapiens, UniProt P49327); experiment: FAS thioesterase domain inhibitors, dose response, biochemical, kinetic fluorescence intensity (AID 624326); type: functional;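 further: rate of fluorescence rise from hydrolysis of a fluorogenic O-methyl fluorescein ester substrate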
Fatty acid synthase [17] = molecular target: T3, Fatty acid synthase; experiment: FAS thioesterase domain inhibitors, dose response, biochemical, endpoint fluorescence intensity, uHTS hits (AID 624327); type: functional;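 further: fluorescence from hydrolysis of an O-methyl fluorescein acyl ester substrate by the enzyme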
Cytochrome P450 2D6 = Cytochrome P450 2D6 (Homo sapiens, UniProt P10635);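 further: CYP2D6 member of a cytochrome P450 panel assay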
cells [18] = type: functional, cell-based
cells [19] = type: functional, cell-based; remark: listed apart in the source
Estrogen receptor = molecular target: T4, Estrogen receptor (Homo sapiens, UniProt P03372);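 further: potency for inhibiting coactivator peptide recruitment to the receptor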
T4 sequence (P03372 whole entry): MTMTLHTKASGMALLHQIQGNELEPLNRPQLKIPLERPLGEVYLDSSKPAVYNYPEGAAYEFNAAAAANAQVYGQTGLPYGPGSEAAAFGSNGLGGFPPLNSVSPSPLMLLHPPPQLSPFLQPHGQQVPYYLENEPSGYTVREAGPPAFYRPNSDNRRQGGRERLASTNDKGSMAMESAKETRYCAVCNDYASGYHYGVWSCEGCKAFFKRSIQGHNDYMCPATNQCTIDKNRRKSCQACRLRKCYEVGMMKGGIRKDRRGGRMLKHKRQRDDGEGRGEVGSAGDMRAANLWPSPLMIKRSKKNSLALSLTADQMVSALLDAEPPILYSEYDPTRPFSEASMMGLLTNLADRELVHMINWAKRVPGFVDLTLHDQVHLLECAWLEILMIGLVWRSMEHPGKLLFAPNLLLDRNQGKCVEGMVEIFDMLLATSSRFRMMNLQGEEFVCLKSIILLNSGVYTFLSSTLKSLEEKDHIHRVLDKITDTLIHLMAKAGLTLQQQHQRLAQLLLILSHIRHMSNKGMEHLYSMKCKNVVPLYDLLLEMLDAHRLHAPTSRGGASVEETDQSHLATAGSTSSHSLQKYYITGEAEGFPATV

[20] = molecular target: T5, Carboxy-terminal domain RNA polymerase II polypeptide A small phosphatase 1 (Homo sapiens, UniProt Q9GZU7); experiment: inhibitors of CTDSP1, concentration-response testing, biochemical assay, absorbance-based, actives from ultra-high-throughput screening (AID 540297); type: functional
T5 sequence (Q9GZU7 whole entry): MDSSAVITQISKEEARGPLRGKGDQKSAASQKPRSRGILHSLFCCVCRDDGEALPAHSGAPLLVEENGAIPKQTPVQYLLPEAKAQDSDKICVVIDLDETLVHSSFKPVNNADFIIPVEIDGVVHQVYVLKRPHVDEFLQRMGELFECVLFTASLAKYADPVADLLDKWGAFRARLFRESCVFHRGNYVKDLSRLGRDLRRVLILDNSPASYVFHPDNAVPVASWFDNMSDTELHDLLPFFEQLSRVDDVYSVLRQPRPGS

Cytochrome P450 2C19 = Cytochrome P450 2C19 (Homo sapiens, UniProt P33261); experiment: Cytochrome panel assay with activity outcomes. Panel member name: p450-cyp2c19 Compounds with AC50 equal or less than 10 uM are considered active; type: functional; settings: read-out: AC50
Nonstructural protein 1 = Nonstructural protein 1 (Influenza A virus, UniProt Q194T2); type: functional, Influenza A virus (A/California/07/2009(H1N1))
[21] = growth suppression of beta-catenin-knockout colon cells, dose response, cell-based, HCT116, human colon tumor (AID 1045); type: functional;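 further: HCT116 colon tumor cells with beta catenin knocked out; cells exposed to compound for 60 hours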
[22] = molecular target: Induced myeloid leukemia cell differentiation protein Mcl-1 (Homo sapiens, UniProt Q07820); type: functional
Sequence of Induced myeloid leukemia cell differentiation protein Mcl-1 (Q07820 whole entry): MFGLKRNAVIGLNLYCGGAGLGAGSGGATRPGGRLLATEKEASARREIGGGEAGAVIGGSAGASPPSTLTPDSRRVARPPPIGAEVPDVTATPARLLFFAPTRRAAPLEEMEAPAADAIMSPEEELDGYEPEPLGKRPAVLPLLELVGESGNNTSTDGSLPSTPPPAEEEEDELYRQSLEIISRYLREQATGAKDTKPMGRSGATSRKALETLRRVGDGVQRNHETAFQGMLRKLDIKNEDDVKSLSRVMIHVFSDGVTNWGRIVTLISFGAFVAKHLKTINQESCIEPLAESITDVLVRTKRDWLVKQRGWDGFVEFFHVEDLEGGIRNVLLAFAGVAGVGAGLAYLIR

Sequence of Cytochrome P450 2C9 (P11712 whole entry): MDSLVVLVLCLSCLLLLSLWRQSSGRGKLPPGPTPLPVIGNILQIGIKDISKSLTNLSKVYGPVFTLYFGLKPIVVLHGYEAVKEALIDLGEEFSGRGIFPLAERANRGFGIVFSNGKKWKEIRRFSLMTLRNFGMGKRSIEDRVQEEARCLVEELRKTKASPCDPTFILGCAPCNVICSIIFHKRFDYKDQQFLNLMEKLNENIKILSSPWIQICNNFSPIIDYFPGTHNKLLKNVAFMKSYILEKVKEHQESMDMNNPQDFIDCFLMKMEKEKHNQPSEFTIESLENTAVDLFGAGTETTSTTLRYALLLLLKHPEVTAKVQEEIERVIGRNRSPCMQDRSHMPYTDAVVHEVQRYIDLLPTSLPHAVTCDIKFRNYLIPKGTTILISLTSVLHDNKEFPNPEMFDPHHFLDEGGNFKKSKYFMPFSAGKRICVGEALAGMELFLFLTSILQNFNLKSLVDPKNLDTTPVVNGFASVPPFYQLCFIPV
T1 sequence (P08684 whole entry): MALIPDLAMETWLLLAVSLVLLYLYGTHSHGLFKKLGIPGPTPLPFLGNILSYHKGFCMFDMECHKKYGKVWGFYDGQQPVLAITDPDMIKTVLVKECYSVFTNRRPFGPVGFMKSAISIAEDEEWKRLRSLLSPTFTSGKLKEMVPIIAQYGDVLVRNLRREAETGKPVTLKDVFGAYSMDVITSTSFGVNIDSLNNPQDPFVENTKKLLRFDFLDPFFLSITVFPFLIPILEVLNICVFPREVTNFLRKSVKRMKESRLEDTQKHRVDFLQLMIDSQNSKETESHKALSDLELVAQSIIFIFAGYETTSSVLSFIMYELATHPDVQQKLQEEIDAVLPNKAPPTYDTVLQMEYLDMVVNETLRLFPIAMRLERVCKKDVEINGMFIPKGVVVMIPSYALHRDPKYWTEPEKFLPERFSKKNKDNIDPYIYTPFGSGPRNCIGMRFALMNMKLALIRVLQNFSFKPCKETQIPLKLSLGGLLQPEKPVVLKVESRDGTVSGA
Sequence of Paired box protein Pax-8 (Q06710 whole entry): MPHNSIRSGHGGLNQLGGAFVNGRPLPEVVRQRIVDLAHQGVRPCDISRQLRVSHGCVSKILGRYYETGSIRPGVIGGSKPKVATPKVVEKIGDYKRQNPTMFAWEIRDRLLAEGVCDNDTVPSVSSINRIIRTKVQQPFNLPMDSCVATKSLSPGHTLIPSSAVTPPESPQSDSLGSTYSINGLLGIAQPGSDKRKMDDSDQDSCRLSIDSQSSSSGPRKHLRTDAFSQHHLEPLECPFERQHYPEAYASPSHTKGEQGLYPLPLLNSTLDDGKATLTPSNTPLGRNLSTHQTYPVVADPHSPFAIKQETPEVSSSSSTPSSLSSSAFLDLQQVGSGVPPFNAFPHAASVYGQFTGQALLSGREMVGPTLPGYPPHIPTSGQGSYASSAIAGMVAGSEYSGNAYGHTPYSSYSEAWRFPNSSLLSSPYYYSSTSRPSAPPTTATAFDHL
T3 sequence (P49327 whole entry, the tested form may be a part): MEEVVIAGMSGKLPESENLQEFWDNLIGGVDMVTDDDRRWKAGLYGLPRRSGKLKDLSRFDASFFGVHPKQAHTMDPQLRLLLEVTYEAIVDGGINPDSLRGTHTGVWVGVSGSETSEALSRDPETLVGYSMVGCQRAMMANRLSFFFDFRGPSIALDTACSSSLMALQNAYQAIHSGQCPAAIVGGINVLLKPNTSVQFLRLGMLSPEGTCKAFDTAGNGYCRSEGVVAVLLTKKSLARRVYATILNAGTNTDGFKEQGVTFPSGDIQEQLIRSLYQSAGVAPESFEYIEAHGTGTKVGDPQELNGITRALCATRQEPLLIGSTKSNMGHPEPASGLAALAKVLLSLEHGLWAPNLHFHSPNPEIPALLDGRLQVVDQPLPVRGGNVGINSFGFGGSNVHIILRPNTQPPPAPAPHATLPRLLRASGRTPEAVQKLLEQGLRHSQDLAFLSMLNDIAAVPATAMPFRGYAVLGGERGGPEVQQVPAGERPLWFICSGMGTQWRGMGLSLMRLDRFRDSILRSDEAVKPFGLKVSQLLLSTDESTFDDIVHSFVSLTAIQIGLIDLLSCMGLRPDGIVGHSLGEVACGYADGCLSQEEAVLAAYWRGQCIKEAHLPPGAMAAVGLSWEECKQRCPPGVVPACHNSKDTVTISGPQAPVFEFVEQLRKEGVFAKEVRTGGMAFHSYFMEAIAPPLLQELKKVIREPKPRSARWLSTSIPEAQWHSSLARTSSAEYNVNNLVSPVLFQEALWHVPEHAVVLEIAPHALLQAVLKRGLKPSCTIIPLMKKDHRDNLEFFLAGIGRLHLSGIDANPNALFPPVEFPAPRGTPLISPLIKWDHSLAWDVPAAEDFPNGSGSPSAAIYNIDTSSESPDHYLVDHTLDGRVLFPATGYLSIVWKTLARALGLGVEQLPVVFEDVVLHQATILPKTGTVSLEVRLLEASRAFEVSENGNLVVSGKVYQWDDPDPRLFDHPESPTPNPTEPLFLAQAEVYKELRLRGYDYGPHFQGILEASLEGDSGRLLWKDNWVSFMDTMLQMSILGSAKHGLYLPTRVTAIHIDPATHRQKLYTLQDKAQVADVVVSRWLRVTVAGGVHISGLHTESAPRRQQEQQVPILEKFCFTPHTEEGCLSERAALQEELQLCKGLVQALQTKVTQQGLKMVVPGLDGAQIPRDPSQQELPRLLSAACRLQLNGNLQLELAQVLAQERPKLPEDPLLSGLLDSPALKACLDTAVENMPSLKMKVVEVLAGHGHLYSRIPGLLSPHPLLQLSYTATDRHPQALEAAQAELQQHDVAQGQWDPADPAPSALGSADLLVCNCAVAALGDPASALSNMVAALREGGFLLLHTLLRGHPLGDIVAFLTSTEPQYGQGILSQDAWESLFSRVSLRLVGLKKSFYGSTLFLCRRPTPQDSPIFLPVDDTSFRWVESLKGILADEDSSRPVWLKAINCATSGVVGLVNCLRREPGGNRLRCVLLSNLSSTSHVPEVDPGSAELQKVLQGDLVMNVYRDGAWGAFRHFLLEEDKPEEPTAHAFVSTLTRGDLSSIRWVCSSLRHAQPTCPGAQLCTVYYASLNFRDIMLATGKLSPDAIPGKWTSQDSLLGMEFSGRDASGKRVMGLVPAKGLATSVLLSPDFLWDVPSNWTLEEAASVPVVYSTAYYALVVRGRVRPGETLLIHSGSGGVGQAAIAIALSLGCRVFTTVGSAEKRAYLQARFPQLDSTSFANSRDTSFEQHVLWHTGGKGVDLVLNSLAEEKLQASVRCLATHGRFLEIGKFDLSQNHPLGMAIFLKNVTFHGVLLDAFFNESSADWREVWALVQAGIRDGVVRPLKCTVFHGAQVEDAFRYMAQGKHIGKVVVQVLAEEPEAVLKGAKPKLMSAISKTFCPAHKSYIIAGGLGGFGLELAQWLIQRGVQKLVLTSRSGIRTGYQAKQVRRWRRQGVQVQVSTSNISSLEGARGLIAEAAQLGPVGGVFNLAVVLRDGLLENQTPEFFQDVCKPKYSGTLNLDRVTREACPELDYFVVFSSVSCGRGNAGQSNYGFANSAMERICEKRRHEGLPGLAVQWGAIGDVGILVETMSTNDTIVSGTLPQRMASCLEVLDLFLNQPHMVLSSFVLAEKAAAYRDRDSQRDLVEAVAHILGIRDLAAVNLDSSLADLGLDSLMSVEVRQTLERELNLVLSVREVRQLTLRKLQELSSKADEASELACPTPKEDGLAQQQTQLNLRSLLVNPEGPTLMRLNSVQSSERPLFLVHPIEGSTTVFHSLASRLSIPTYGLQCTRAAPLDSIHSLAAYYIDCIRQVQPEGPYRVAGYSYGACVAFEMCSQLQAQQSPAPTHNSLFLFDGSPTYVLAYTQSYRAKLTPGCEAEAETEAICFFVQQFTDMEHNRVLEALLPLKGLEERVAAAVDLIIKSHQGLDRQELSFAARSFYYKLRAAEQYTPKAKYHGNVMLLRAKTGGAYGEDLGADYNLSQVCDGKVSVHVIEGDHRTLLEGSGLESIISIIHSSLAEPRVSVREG
Sequence of Nonstructural protein 1 (Q194T2 whole entry): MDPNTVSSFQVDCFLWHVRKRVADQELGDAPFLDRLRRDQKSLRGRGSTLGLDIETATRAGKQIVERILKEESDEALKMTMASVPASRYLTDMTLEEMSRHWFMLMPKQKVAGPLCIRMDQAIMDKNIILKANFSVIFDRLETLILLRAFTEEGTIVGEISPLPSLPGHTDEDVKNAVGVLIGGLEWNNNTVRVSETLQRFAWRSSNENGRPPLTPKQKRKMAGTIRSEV
Sequence of Cytochrome P450 2D6 (P10635 whole entry): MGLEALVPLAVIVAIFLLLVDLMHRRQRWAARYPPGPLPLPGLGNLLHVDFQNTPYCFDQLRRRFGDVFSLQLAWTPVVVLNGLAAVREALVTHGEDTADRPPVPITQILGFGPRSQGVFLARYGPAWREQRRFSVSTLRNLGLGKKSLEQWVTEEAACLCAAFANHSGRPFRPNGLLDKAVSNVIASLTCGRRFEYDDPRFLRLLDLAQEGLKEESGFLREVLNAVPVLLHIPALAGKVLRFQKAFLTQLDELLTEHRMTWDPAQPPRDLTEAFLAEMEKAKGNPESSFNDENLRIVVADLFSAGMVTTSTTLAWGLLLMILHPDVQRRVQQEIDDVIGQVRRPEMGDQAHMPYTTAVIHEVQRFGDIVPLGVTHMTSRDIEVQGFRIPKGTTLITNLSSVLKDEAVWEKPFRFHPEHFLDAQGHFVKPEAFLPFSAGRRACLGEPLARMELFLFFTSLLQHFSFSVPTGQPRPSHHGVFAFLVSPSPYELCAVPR

Clc1ccc(CN2CCCN(Cc3ccc(Cl)cc3)C2c2cc3ccccc3c3ccccc23)cc1
AC50 (Cytochrome P450 2C9): inconclusive

Oc1ccc(Cn2cc[nH]c2=S)cc1
AC50 (Cytochrome P450 3A4 [1]): 15.8 µM (inconclusive)
AC50 (Cytochrome P450 1A2): 6.31 µM (inconclusive)
AC50 (Cytochrome P450 2C9): inconclusive

C=CCC1(C)OC=Cc2nc3cc(Cl)c(Cl)cc3nc21 (configuration not stated)
AC50 (Cytochrome P450 3A4 [2]): 3.98 µM (inconclusive)

CCC(C)NC(=O)CSc1ccc(S(=O)(=O)N2CCN(Cc3ccccc3)CC2)cn1 (configuration not stated)
CC50 [3]: > 40 µM (active)

O=C(O)c1ccc(-c2noc(-c3ccccc3Cl)n2)cc1
AC50 [4]: 32.9 µM (active)
AC50 [5]: 28.3 µM (active)

C[C@H]1CN([C@@H](C)CO)C(=O)c2c(c3ccccc3n2C)-c2ccccc2CO[C@H]1CN(C)S(=O)(=O)c1ccc(C(F)(F)F)cc1
AC50 [6]: 50.8 µM (active)
AC50 [7]: 0.251 µM (active)
AC50 (Paired box protein Pax-8): 3.69 µM (active)
AC50 [8]: 32.1 µM (active)
AC50 [9]: 0.216 µM (active)
AC50 [10]: < 0.3 µM (active)
AC50 [11]: 0.23 µM (active)

CC(C)CC#Cc1ccc2c(c1)O[C@H](CN(C)Cc1ccc(F)cc1)[C@H](C)CN([C@H](C)CO)S2(=O)=O
AC50 [6]: 61.2 µM (active)
AC50 (Paired box protein Pax-8): 23.1 µM (active)

C[C@H]1CCCCO[C@H](CN(C)C(=O)Nc2ccc(F)cc2)[C@@H](C)CN([C@@H](C)CO)C(=O)c2cc(NC(=O)Nc3ccc(C(F)(F)F)cc3)ccc2O1
AC50 [6]: 58.3 µM (active)
AC50 (Paired box protein Pax-8): 8.09 µM (active)

CCO/C(O)=C/c1nc2ccccc2sc1=O
AC50 [12]: 5.57 µM (active)
AC50 [13]: 5.7 µM (active)
AC50 [14]: 5.06 µM (active)
AC50 [15]: 3 µM (active)

Cn1c(=O)c2nc(COc3ccc(C(C)(C)C)cc3)[nH]c2n(C)c1=O
IC50 (Fatty acid synthase [16]): 6.26 µM (active)
IC50 (Fatty acid synthase [17]): 4.28 µM (active)

COc1cccc(C(=O)Nc2cc(C(F)(F)F)ccc2Cl)c1
AC50 (Cytochrome P450 2D6): 28.2 µM (inconclusive)
AC50 (Cytochrome P450 2C9): inconclusive

CCN(CC)S(=O)(=O)c1ccc(/C=C/C(=O)Nc2ccc(N3CCOCC3)cc2)cc1
CC50 [3]: > 40 µM (active)

CC[C@@]1(C(=O)OC)N[C@H](CN(C)C(=O)Nc2ccc(F)cc2)[C@@H]2C(=O)N(Cc3ccccc3)C(=O)[C@@H]21
AC50 [12]: 0.744 µM (active)
AC50 [13]: 0.401 µM (active)
AC50 [14]: 0.378 µM (active)
AC50 [15]: 0.614 µM (active)

Cn1nc(C(=O)NCCCN2CCCCC2)c2c1-c1ccccc1S(=O)(=O)C2
EC50 (cells [18]): > 350 µM (not active)
EC50 (cells [19]): > 350 µM (not active)

O=C(Nc1ccc2oc(-c3ccccc3F)nc2c1)c1cncc(Br)c1
IC50 (Estrogen receptor): 15.5 µM (active)

COc1ccc2cc(C(=O)Nc3ccc(F)cc3)sc(=O)c2c1OC
AC50 (Cytochrome P450 2C9): inconclusive
IC50 [20]: 6.77 µM (active)

CCCn1c(C)nc2c(Nc3ccccc3)nc(C)nc21
AC50 (Cytochrome P450 3A4 [2]): 31.6 µM (inconclusive)

O=C(Nc1cccn2ncnc12)c1ccc(Cl)cc1Cl
AC50 (Cytochrome P450 2C19): 11.2 µM (inconclusive)
AC50 (Cytochrome P450 2C9): inconclusive

Cc1cc(C)cc(NC(=O)c2cccc(NC(=O)c3ccco3)c2)c1
EC50 (cells [18]): > 350 µM (not active)
EC50 (cells [19]): 34.9 µM (active)

COc1ccc(-c2cc([N+](=O)[O-])ccc2OCC(=O)N(C)CC(=O)Nc2ccc(C)cc2)cc1
IC50 (Fatty acid synthase [16]): 7.78 µM (active)
IC50 (Fatty acid synthase [17]): 7.56 µM (active)

Cc1cc(C(=O)N/N=C/c2cc([N+](=O)[O-])ccc2O)c2ccccc2n1
IC50 (Fatty acid synthase [16]): 2.75 µM (active)
IC50 (Nonstructural protein 1): 5.29 µM (active)
IC50 (Fatty acid synthase [17]): 3.18 µM (active)

CCCCN1CC(=O)N2[C@H]3c4ccccc4OC[C@@H]3[C@H](c3ccccc3)[C@]2(C)C1=O
AC50 [12]: 4.48 µM (active)
AC50 [13]: 3.64 µM (active)
AC50 [14]: 0.448 µM (active)
AC50 [15]: 29.7 µM (active)

C=C[C@H]1CN2CC[C@H]1C[C@H]2c1[nH]c2ccccc2c1CCO [CINCHONAMINE]
AC50 (Cytochrome P450 3A4 [2]): 31.6 µM (inconclusive)

O=C(CCC(=O)c1cccs1)Nc1nnc(C2CC2)s1
IC50 (Estrogen receptor): > 50 µM (not active)

CNC(=O)/C(=C\C=C\c1ccccc1)NC(=O)c1ccc([N+](=O)[O-])cc1
IC50 (Fatty acid synthase [16]): 0.809 µM (active)
IC50 (Fatty acid synthase [17]): 0.786 µM (active)

CCOC(=O)C1=CC[C@H]2c3c(c4ccccc4n3C)C(=O)C1N2C(=O)OC(C)(C)C
IC50 (Fatty acid synthase [16]): 11.9 µM (active)
IC50 (Fatty acid synthase [17]): 10.8 µM (active)

CCN(CC)c1ccc(NC2=C(Cl)C(=O)c3ccccc3C2=O)cc1
EC50 [21]: 1 µM (active)
CC50 [3]: 4.24 µM (active)
IC50 [22]: 1.47 µM (active)

Nc1nnc(CC(=O)N/N=C/c2cccc([N+](=O)[O-])c2)s1
AC50 (Cytochrome P450 1A2): 31.6 µM (inconclusive)
AC50 (Cytochrome P450 2C9): inconclusive

O=C(CCCCCN1C(=O)c2ccccc2C1=O)Nc1ccc2c(c1)OCCO2
EC50 (cells [18]): > 350 µM (not active)
EC50 (cells [19]): > 350 µM (not active)

CC1(C)CC2C1CCC1(C)OC1CCC2(C)O (configuration not stated) [2-HYDROXY-5 (6)EPOXY-TETRAHYDROCARYOPHYLLENE]
AC50 (Cytochrome P450 3A4 [2]): 25.1 µM (inconclusive)

C=CCN(c1ccccc1)S(=O)(=O)c1cccc(C(=O)Nc2ncccc2O)c1
EC50 (cells [18]): > 350 µM (not active)
EC50 (cells [19]): > 350 µM (not active)
